Data taken from publication PMC8229129, “Local Colonic Administration of a Serine Protease Inhibitor Improves Post-Inflammatory Visceral Hypersensitivity in Rats” (Pharmaceutics, 2021).

Tested on: trypsin-like, chymotrypsin-like, cathepsin G, elastase-like, and kallikrein activities in colon tissue
Assay: Proteolytic activities in colonic tissue of control rats after intracolonic administration
Type: in vivo, Sprague–Dawley rats
Conditions: 5 mg/kg intracolonic
Protocol: The serine protease inhibitor UAMC-00050 (0.1–1.0–2.5–5.0 mg/kg, dissolved in a volume of 200 µL) or its vehicle (5% DMSO in H2O) was delivered colonically using a flexible catheter (18 G, length 4.5 cm) under short-lasting isoflurane anesthesia (5.0% induction, 1.5% maintenance). To prevent expulsion of the enema, animals were held in a Trendelenburg position for 90 s. Doses for intracolonic administration were based on the doses known to be effective via an i.p. administration and adapted afterwards based on preliminary results.
Trypsin-like, chymotrypsin-like, cathepsin G, elastase-like, and kallikrein activities were determined in colon tissue and fecal samples to profile serine protease activity. […]
Boc-Gln-Ala-Arg-AMC (75 µM) and n-Tosyl-Gly-Pro-Arg-AMC (100 µM) in 50 mM Tris-HCl pH 8.0 containing 120 mM NaCl were used to measure the trypsin-like activity. […] The fluorescence was measured during 20 min at 37 °C on a Tecan Infinite F200 Pro microtiter plate reader. The other activities were assessed in a similar assay, using the substrates mentioned below. Chymotrypsin-like and kallikrein activity were measured with Suc-Ala-Ala-Pro-Phe-AMC (0.45 mM) and H-Pro-Phe-Arg-AMC (0.45 mM), respectively. Elastase-like activity was measured using two assays, one using Suc-Ala-Ala-Pro-Val-AMC as a substrate and the other using Suc-Ala-Ala-Ala-AMC (both 0.45 mM). […]

How did the “Effect on proteolytic activities in colonic tissue” value turn out when `CC(=O)Nc1ccc(OP(=O)(Oc2ccc(NC(C)=O)cc2)C(Cc2ccc(N=C(N)N)cc2)NC(=O)OCc2ccccc2)cc1.Cl` (stereo not shown) [UAMC-00050] was run?
The value was “did not alter”.
